Test results: patent EP0195147A1, “Trihalo(amine)gold(III) complexes” (ENGELHARD CORPORATION, priority 1985, dated 1986)
“And” between values parts separate entries of the source, which are not always exact repeats. Equal entries are not always repeated.

Legend:
S 180 ascites = assay: Anti-tumor screening against S 180 ascites (% increase in life span); assay type: in vivo, female CFW Swiss mice; details: for Survivors: survivors on day of evaluation (twice the mean life span of the control)
Method: The above prepared compounds were evaluated against §180 ascites in female CFW Swiss mice. The mice were weighed (average weight: 20 g), placed into cages (six mice to a cage) and on day zero the mice were inoculated with 0.2 ml of a freshly prepared saline suspension (0.15 M NaCl) containing 1 x 10^7 tumor cells/ml or a total of 2 x 10^6 cells. This inoculum was freshly prepared using "transfer" mice which had been injected with tumor cells the previous week; it was obtained via the following steps: (1) the removal of cells from the peritoneal cavity of the sacrificed transfer mouse, (2) alternate centrifugation and washing operations (2-3 times with cold saline) to remove blood and other components, and (3) dilution of the volume of the packed cell with saline (1:3). A final centrifugation was carried out at 1000 RPM over a two minute period. A cell count was made on a 2,000-fold dilution of this 1:3 suspension by means of a Coulter Counter. A final dilution to […] cells/ml was made based on the average count.
On day 1, solutions of the test compounds were prepared and each mouse in a set of six were injected with the same test compound at the same dosage. The doses were based on the average weight of the animals (cage weight). Also, beginning on day 1 two controls were employed containing six mice per control; • (1) Normal Control: This consisted solely of the carrier or diluent used in combination with the test compound; and • (2) Positive Control: This consisted solely of the known anti-tumor agent cis-[Pt(NH3)2C12] (Cisplatin) in saline (8 mg/kg) to test the response of the
The effectiveness of a test compound was measured in terms of the % increase in life span (%ILS) of the test mice relative to the Normal Control (Calculated from the day of tumor inoculation, ie., day zero). To standardize the test data and permit intercomparisons, the day of evaluation was arbitrarily taken as that day corresponding to twice the mean life span (or average day of death) of the control. This established a practical upper limit of 100% on the %ILS attainable. For calculation purposes the survivors on the day of evaluation were considered to have died on that day. The %ILS was calculated as follows: [formula] ILS values in excess of 50% were interpreted as being indicative of anti-tumor activity, whereas, values in excess of 75% indicated excellent activity.
The products of Examples 1, 4, 10 and 11 were administered in a freshly prepared 1% sodium bicarbonate solution; the remaining test compounds were administered as slurries in 0.5% "Klucel" (hydroxypropylcellulose). All products (I) are insoluble in water.

[1] = Therapeutic indices, ED90 and LD50 by the method of Miller and Tainter; set-up: species or system Swiss white mice; details: mouse, in vivo; for selectivity ratio: LD50/ED90, read-out: Therapeutic Index; for LD50: lethal dose to 50% of the animals
Method: The therapeutic indices for the present compounds (I), their effective dose (ED90) and lethal dose (LD50) were determined according to the method of Miller and Tainter (Reported by R. A. Turner, "Screening Methods in Pharmacology", Academic Press, New York, pages 61-62 (1976)).

Solubility = assay type: physicochemical; details: 1% sodium bicarbonate solution; read-out: soluble in 1% sodium bicarbonate solution to the extent of
[2] = system: implanted Sarcoma 180 tumors; details: value attributed to commercially available Cisplatin; cited from earlier work

Row | Structure (SMILES) | Survivors (S 180 ascites; Dose 10 mg/kg) | Survivors (S 180 ascites; Dose 20 mg/kg) | Survivors (S 180 ascites; Dose 40 mg/kg) | Survivors (S 180 ascites; Dose 80 mg/kg) | Survivors (S 180 ascites; Dose 160 mg/kg) | Survivors (S 180 ascites; Dose 320 mg/kg) | selectivity ratio [1] | LD50 [1] | solubility (Solubility) | Positive Control Survivors (S 180 ascites; Cisplatin in saline, 8 mg/kg, run alongside the example of the same table line, listed as Positive Control) | Therapeutic Index [2] | anti-tumor activity (in words) (S 180 ascites; 50% ILS criterion, all doses tested) | Survivors (S 180 ascites; Dose 5 mg/kg) | anti-tumor activity (in words) (S 180 ascites; within the 20-40 mg/kg range)
1 | O=C(O)Cc1ccc[n+]([Au-]([Cl])([Cl])[Cl])c1 [Ex. 4, trichloro-(3-pyridyacetic acid)gold(III)] | 0 of 6 | 0 of 6 | 1 of 6 | 1 of 6 | 0 of 6 | 0 of 6 | 1.8 | 150 mg/kg | 12.8 mg/mL |  |  |  |  | 
2 | Oc1ccc[n+]([Au-]([Cl])([Cl])[Cl])c1 [Ex. 5] | 0 of 6 | 2 of 6 | 3 of 6 | 2 of 6 | 0 of 6 | 0 of 6 |  |  |  |  |  |  |  | 
3 | O=C(O)c1ccc[n+]([Au-]([Br])([Br])[Br])c1 [Ex. 10] | 0 of 6 | 0 of 6 | 2 of 6 | 0 of 6 | 0 of 6 | 0 of 6 |  |  | 12.8 mg/mL |  |  |  |  | 
4 | OCc1ccc[n+]([Au-]([Cl])([Cl])[Cl])c1 [Ex. 6] | 0 of 6 | 1 of 6 | 3 of 6 | 0 of 6 | 0 of 6 | 0 of 6 | 2.1 | 90 mg/kg |  |  |  |  |  | 
5 | CC(=O)c1ccc[n+]([Au-]([Cl])([Cl])[Cl])c1 [Ex. 3, trichloro(3-acetylpyridine)gold(III)] | 0 of 6 | 1 of 6 | 5 of 6 | 4 of 6 | 0 of 6 | 0 of 6 | 4.5 | 140 mg/kg |  |  |  |  |  | 
6 | O=C(O)c1ccc[n+]([Au-]([Cl])([Cl])[Cl])c1 [Ex. 1, Trichloro(Nicotinic Acid)Gold(III)] | 0 of 6 | 3 of 6 | 3 of 6 | 4 of 6 | 0 of 6 | 0 of 6 | 5.8 | 180 mg/kg | 12.8 mg/mL |  |  |  |  | 
7 | Cn1cc[n+]([Au-]([Br])([Br])[Br])c1 [Ex. 9, Tribromo(N-Methylimidazole)Gold(III)] | 0 of 6 | 4 of 6 | 3 of 6 | 1 of 6 | 0 of 6 | 0 of 6 | 2 | 85 mg/kg |  |  |  |  |  | 
8 | N.N.[Cl][Pt][Cl] [Cisplatin, cis-[Pt(NH3)2C12], reference compound] |  |  |  |  |  |  |  |  |  | 0 of 6 and 4 of 6 and 1 of 6 and 6 of 6 | 2.2-2.5 |  |  | 
9 | [Cl][Au-]([Cl])([Cl])[n+]1ccccc1 [Ex. 7, trichloro(pyridine)gold(III)] | 3 of 6 | 2 of 6 | 3 of 6 | 2 of 6 | 0 of 6 | 0 of 6 |  |  |  |  |  |  |  | 
10 | O=C(O)Cc1ccc[n+]([Au-]([Br])([Br])[Br])c1 [Ex. 11, tribromo(3-pyridylacetic acid)gold(III)] | 0 of 6 | 0 of 6 | 0 of 6 | 1 of 6 | 0 of 6 | 0 of 6 |  |  | 12.8 mg/mL |  |  |  |  | 
11 | O=C(O)Cc1ccc[n+]([Au-]([Cl])([Cl])[Cl])c1 [trichloro-(3-pyridyacetic acid)gold(III)] |  |  |  |  |  |  |  |  |  |  |  | pronounced anti-tumor effect |  | 
12 | [Cl][Au-]([Cl])([Cl])[n+]1cc[nH]c1 [Ex. 8, trichloro(imidazole)gold(III)] | 0 of 6 | 1 of 6 | 0 of 6 | 1 of 6 | 2 of 6 |  |  |  |  |  |  |  | 0 of 6 | 
13 | Cn1cc[n+]([Au-]([Cl])([Cl])[Cl])c1 [Ex. 2, Trichloro(N-Methylimidazole)Gold(III)] | 0 of 6 | 1 of 6 | 4 of 6 | 1 of 6 | 0 of 6 |  | 2.8 | 90 mg/kg |  |  |  |  | 0 of 6 | decidedly active
